From the NIST ThermoML archive (doi:10.1021/je100715x)

Legend:
[1] = refractive index (Na D-line) (dimensionless); xn = mol fraction of the nth substance listed; settings: 101 kPa, Liquid, Standard Abbe refractometry
[2] = xn = mol fraction of the nth substance listed; settings: 101 kPa, Liquid; for viscosity: Capillary tube (Ostwald / Ubbelohde) method; for mass density: Vibrating tube method

CCOC(=O)C(=O)OCC [diethyl ethanedioate] + CCC(=O)CC
Settings | mass density, 303.15 K [kg/m3] | mass density, 308.15 K [kg/m3] | mass density, 313.15 K [kg/m3] | refractive index, 303.15 K | refractive index, 308.15 K | refractive index, 313.15 K | viscosity, 303.15 K [mPa·s] | viscosity, 308.15 K [mPa·s] | viscosity, 313.15 K [mPa·s]
[1], x1 = 0.0865 | – | – | – | 1.3901 | 1.3881 | 1.3861 | – | – | –
[1], x1 = 0.1436 | – | – | – | 1.3916 | 1.3897 | 1.3877 | – | – | –
[1], x1 = 0.2448 | – | – | – | 1.3941 | 1.3924 | 1.3906 | – | – | –
[1], x1 = 0.3389 | – | – | – | 1.3962 | 1.3947 | 1.393 | – | – | –
[1], x1 = 0.4495 | – | – | – | 1.3984 | 1.3969 | 1.3954 | – | – | –
[1], x1 = 0.5325 | – | – | – | 1.3999 | 1.3983 | 1.3969 | – | – | –
[1], x1 = 0.6518 | – | – | – | 1.4018 | 1.4 | 1.3986 | – | – | –
[1], x1 = 0.7587 | – | – | – | 1.4033 | 1.4014 | 1.3998 | – | – | –
[1], x1 = 0.8659 | – | – | – | 1.4047 | 1.4026 | 1.4008 | – | – | –
[1], x1 = 0.9438 | – | – | – | 1.4056 | 1.4034 | 1.4015 | – | – | –
[2], x1 = 0.0865 | 834 | 829.9 | 825.8 | – | – | – | 0.485 | 0.452 | 0.44
[2], x1 = 0.1436 | 852 | 847.8 | 843.6 | – | – | – | 0.527 | 0.491 | 0.478
[2], x1 = 0.2448 | 882.5 | 878.2 | 873.8 | – | – | – | 0.61 | 0.567 | 0.551
[2], x1 = 0.3389 | 909.4 | 905 | 900.5 | – | – | – | 0.701 | 0.65 | 0.627
[2], x1 = 0.4495 | 939.4 | 934.8 | 930.1 | – | – | – | 0.818 | 0.759 | 0.726
[2], x1 = 0.5325 | 960.8 | 956.1 | 951.2 | – | – | – | 0.916 | 0.848 | 0.808
[2], x1 = 0.6518 | 990 | 985.1 | 979.9 | – | – | – | 1.071 | 0.987 | 0.936
[2], x1 = 0.7587 | 1014.7 | 1009.6 | 1004.2 | – | – | – | 1.224 | 1.121 | 1.061
[2], x1 = 0.8659 | 1038.2 | 1032.9 | 1027.2 | – | – | – | 1.395 | 1.274 | 1.196
[2], x1 = 0.9438 | 1054.6 | 1049.1 | 1043.3 | – | – | – | 1.525 | 1.391 | 1.295

CCOC(=O)C(=O)OCC [diethyl ethanedioate] + O=C1CCCC1
Settings | mass density, 303.15 K [kg/m3] | mass density, 308.15 K [kg/m3] | mass density, 313.15 K [kg/m3] | refractive index, 303.15 K | refractive index, 308.15 K | refractive index, 313.15 K | viscosity, 303.15 K [mPa·s] | viscosity, 308.15 K [mPa·s] | viscosity, 313.15 K [mPa·s]
[1], x1 = 0.0679 | – | – | – | 1.4299 | 1.4278 | 1.4262 | – | – | –
[1], x1 = 0.1501 | – | – | – | 1.4264 | 1.4244 | 1.4231 | – | – | –
[1], x1 = 0.2518 | – | – | – | 1.4226 | 1.4207 | 1.4198 | – | – | –
[1], x1 = 0.3903 | – | – | – | 1.4182 | 1.4164 | 1.4158 | – | – | –
[1], x1 = 0.4511 | – | – | – | 1.4164 | 1.4147 | 1.4142 | – | – | –
[1], x1 = 0.5509 | – | – | – | 1.4139 | 1.4122 | 1.4116 | – | – | –
[1], x1 = 0.6587 | – | – | – | 1.4115 | 1.4098 | 1.4089 | – | – | –
[1], x1 = 0.7587 | – | – | – | 1.4098 | 1.4079 | 1.4067 | – | – | –
[1], x1 = 0.8755 | – | – | – | 1.408 | 1.4059 | 1.4043 | – | – | –
[1], x1 = 0.961 | – | – | – | 1.4068 | 1.4045 | 1.4027 | – | – | –
[2], x1 = 0.0679 | 950.9 | 946.1 | 941.1 | – | – | – | 1.045 | 0.96 | 0.891
[2], x1 = 0.1501 | 965 | 960.1 | 954.9 | – | – | – | 1.095 | 0.999 | 0.925
[2], x1 = 0.2518 | 981 | 976 | 970.6 | – | – | – | 1.153 | 1.048 | 0.968
[2], x1 = 0.3903 | 1000.6 | 995.4 | 989.9 | – | – | – | 1.233 | 1.119 | 1.031
[2], x1 = 0.4511 | 1008.5 | 1003.2 | 997.7 | – | – | – | 1.265 | 1.152 | 1.058
[2], x1 = 0.5509 | 1020.7 | 1015.3 | 1009.7 | – | – | – | 1.326 | 1.207 | 1.107
[2], x1 = 0.6587 | 1032.9 | 1027.4 | 1021.7 | – | – | – | 1.394 | 1.269 | 1.163
[2], x1 = 0.7587 | 1043.4 | 1037.9 | 1032.1 | – | – | – | 1.458 | 1.329 | 1.219
[2], x1 = 0.8755 | 1054.9 | 1049.3 | 1043.3 | – | – | – | 1.537 | 1.401 | 1.288
[2], x1 = 0.961 | 1062.7 | 1057 | 1051 | – | – | – | 1.596 | 1.454 | 1.342
